pKi: −log10 of the molar value. Counter-ions that a name gives are not always drawn.
Assays:
[1] = target: T1, Noradrenaline reuptake (Rattus norvegicus, UniProt Q63380); experiment: Inhibition of noradrenaline (NA) reuptake in rat brain synaptosomes; format: biochemical; conditions: synaptosomes from rat hypothalamus
T1 construct: synaptosomes are freshly isolated from areas of the rat brain; from tissue; host or cells: P2 synaptosome fraction from the hypothalamus of male rat brains
Method: (§1) In order to be able to carry out these in vitro studies, synaptosomes are freshly isolated from areas of the rat brain. In each case a so-called “P2” fraction prepared in accordance with the instruction of Gray and Whittaker (E. G. Gray and V. P. Whittaker (1962) J. Anat. 76, 79-88) is prepared. For the NA uptake, these vesicular particles are isolated from the hypothalamus of male rat brains.
(§2) A detailed description of the method can be found in the literature (M. Ch. Frink, H.-H. Hennies, W. Englberger, M. Haurand and B. Wilffert (1996) Arzneim.-Forsch./Drug Res. 46 (III), 11, 1029-1036).

[2] = target: T2, human μ opiate receptor (Homo sapiens, UniProt P35372); experiment: Affinity for the human μ opiate receptor ([3H]-naloxone displacement, CHO-K1 membrane preparation, SPA); format: binding; conditions: for inhibition at 1 µM: 1 μM test substance, displacement of [3H]-naloxone, read-out: μ opioid receptor [1 μM], % inhibition; for pKi: Cheng-Prusoff conversion from IC50, read-out: μ opioid receptor, Ki
T2 construct: purchased PerkinElmer Life Sciences, Zaventem, Belgium RB-HOM; host or cells: CHO-K1 cells (recombinant expression)
In short: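 CHO-K1 membranes expressing human μ receptor (15-40 μg protein/250 μl) were incubated 90 min at room temperature with 1 nmol/l [³H]-naloxone and WGA-SPA beads in 50 mmol/l Tris-HCl with 0.06% BSA; 100 μmol/l naloxone defined nonspecific binding. Percent displacement measured at 1 μmol/l; IC50 converted to Ki via Cheng-Prusoff.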

[3] = target: T3, Serotonin reuptake (Rattus norvegicus, UniProt P31652); experiment: Inhibition of serotonin (5HT) reuptake in rat brain synaptosomes; format: biochemical
T3 construct: synaptosomes are freshly isolated from areas of the rat brain; from tissue
Method: as §1, §2

T2 sequence (P35372 whole entry): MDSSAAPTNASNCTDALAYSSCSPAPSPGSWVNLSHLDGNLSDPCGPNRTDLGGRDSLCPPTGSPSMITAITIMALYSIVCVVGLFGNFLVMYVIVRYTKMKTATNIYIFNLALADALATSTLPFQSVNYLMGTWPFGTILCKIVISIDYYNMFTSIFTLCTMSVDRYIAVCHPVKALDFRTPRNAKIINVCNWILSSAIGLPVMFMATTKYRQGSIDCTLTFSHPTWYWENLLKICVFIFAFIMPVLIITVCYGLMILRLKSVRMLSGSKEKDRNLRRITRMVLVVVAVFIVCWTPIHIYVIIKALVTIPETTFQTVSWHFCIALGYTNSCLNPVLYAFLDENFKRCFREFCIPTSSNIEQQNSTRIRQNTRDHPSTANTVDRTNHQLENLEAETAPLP
T3 sequence (P31652 whole entry): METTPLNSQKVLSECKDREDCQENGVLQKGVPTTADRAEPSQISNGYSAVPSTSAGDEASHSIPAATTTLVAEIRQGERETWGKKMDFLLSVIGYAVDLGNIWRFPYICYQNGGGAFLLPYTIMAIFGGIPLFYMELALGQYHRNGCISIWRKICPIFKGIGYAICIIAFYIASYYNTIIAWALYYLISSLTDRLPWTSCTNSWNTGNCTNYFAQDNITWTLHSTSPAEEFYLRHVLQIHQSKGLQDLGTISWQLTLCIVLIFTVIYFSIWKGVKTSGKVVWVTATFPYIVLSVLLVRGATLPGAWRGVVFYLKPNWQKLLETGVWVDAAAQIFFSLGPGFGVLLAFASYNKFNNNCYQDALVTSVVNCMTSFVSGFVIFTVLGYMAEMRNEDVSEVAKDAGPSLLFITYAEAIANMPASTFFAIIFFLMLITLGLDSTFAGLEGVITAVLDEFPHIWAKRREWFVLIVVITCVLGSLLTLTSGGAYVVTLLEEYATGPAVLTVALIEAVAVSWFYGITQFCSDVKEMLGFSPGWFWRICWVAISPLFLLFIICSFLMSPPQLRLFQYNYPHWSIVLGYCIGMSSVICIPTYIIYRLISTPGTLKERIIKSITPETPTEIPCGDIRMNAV
T1 sequence (Q63380 1-617): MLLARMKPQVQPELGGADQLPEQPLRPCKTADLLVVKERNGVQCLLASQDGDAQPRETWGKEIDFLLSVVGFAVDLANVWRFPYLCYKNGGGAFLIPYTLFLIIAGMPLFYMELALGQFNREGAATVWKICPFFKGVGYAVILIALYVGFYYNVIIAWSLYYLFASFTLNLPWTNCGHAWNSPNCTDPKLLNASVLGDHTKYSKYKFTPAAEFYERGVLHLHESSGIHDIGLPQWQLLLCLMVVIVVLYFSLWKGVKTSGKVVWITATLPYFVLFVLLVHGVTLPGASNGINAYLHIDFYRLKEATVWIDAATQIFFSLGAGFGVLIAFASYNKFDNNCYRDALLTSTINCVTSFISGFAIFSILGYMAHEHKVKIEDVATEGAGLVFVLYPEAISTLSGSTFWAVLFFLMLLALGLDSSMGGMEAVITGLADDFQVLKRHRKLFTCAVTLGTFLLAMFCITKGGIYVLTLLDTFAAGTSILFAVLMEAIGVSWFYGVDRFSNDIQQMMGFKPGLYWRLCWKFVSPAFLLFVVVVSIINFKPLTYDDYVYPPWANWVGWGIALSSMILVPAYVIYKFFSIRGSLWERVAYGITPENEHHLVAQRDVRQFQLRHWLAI

## Cc1ccc2[nH]c3c(c2c1)CC(C)OC31CCC(C(c2ccccc2)N(C)C)CC1 (stereo not drawn) (as salt: citrate) [Compound 42, 3,6-Dimethyl-1,1-[3-(dimethylamino-(phenyl)-methyl)-pentamethylene]-1,3,4,9-tetrahydropyrano[3,4-b]indole Citrate]
other
  melting point: 245 to 250 °C

## CN(C)C(c1cccc(F)c1)C1CCC2(CC1)NCCc1c2[nH]c2ccccc12 (stereo not drawn) [Compound 18, 1,1-[3-(Dimethylamino-(3-fluorophenyl)methyl)-pentamethylene]-3,4-dihydro-1H-2,9-diazafluorene]
[1]
  inhibition at 10 µM: 58%
[2]
  inhibition at 1 µM: 74%
  pKi: 6.59
[3]
  inhibition at 10 µM: 64%
other
  melting point: 226 to 229 °C

## CN(C)C(c1ccccc1)C1CCC2(CC1)NCCc1c2[nH]c2ccccc12 (stereo not drawn) [Compound 19, 1,1-[3-(Dimethylamino-phenylmethyl)-pentamethylene]-3,4-dihydro-1H-2,9-diazafluorene]
[1]
  inhibition at 10 µM: 65%
[2]
  inhibition at 1 µM: 81%
  pKi: 6.74
[3]
  inhibition at 10 µM: 91%
other
  melting point: 182 to 184 °C

## CN(C)C(CCc1ccccc1)C1CCC2(CC1)NCCc1c2[nH]c2ccccc12 (stereo not drawn) (as salt: citrate) [Compound 20, 1,1-[3-(Dimethylamino-(phenylethyl)-methyl)-pentamethylene]-3,4-dihydro-1H-2,9-diazafluorene Citrate]
other
  melting point: 130 to 135 °C

Source: patent US8124788B2, “Spirocyclic cyclohexane compounds with analgesic activity” (Gruenenthal GmbH, priority 2006, dated 2012)
